Counter-ions that a name gives are not always drawn. Like-named read-outs stand apart in the source and are kept apart here.
Key:
collagenase = details: cited from earlier work
collagenase type V [1] = experiment: Collagenase inhibition assay (spectrofluorometric); type: biochemical; details: for IC50: collagenase type V, MMP-2 fluorogenic substrate, 1% DMSO, 95% confidence interval in brackets, read-out: Collagenase Inhibition IC50 µM (CI 95 ±)
Experimental: The assay was carried out according to a previously published protocol by Hartmann et al.. All required reagents for the assay were purchased from Sigma Aldrich. Both enzyme (collagenase type V; C-9263) and substrate (SCP0192 MMP-2 substrate, Sigma Aldrich) were dissolved in the reagent buffer (Tris–HCl; 10 mM pH 7.3) and diluted from stock solutions to 100 μg/mL (initial) enzyme concentration and 55.55 μg/mL (initial) substrate concentration prior to use. Test samples and standard inhibitor phosphoramidon disodium salt used as positive control were dissolved in H2O/DMSO, always maintaining a final DMSO concentration of 1% in each well. The final reaction volume of 100 μL was composed of 25 μL buffer solution, and 25 μL sample/positive controls which were added first followed by 25 μL enzyme. This mixture was incubated for 10 min at 37 °C. Finally, 25 µL of substrate were added to initiate the readout reaction. The substrate which carries a fluorogenic residue (7-methoxycoumarin-4-yl acetic acid) is continuously dissipated by the enzyme collagenase. Measurements are taken after 30 min at an excitation wavelength of λ = 320 nm and λ = 400 nm emission wavelengths in a 96-well microplate format using an Infinite F 200 pro microplate reader equipped with filter-based technology (Tecan, Männedorf, Switzerland). An untreated control group containing 1% DMSO without sample was set to 100% enzyme activity. Blank wells without enzyme were measured accordingly and subtracted from the fluorescent units of each well. Two positive controls were used. First, the well-established phosphoramidon disodium salt and second, to include natural product based inhibitors, rutin and EGCG were used. Measurements were performed in triplicates using 96 well plates, and each substance was measured in three independent experiments. […] IC50 values were calculated by fitting data (log (Inhibitor) vs. response–variable slope) using GraphPad Prism (GraphPad Software, San Diego, CA, USA).
Statistics: The data were analyzed at least in three independent experiments and were expressed as mean ± SEM. A Shapiro Wilk normality test was performed to confirm the Gaussian distribution of the data. One-way ANOVA, followed by a Dunett’s multiple comparison test in GraphpadPrism 5 were performed to clarify statistical significance. p-Value of ≤ 0.05 was considered statistically significant.

pentosidine-like AGEs [2] = experiment: Inhibition of advanced glycation end products (AGEs) formation, BSA/D-ribose fluorescence assay; type: biochemical; details: for IC50: BSA 10 mg/mL, D-ribose 0.5 M, 37 °C, 24 h
Experimental: The anti-AGE assay was carried out following the methodology previously reported by Séro et al.. Briefly, the samples (1 µM to 3 mM) were incubated with D-ribose (0.5 M) and bovine serum albumin (BSA, 10 mg/mL) in a Na-phosphate buffer (50 mM pH 7.4); the solutions were incubated in black microtiter plates (96 wells) at 37 °C for 24 h in a closed system before AGE fluorescence measurement. Both vesperlysines-like (λexc370 nm; λem440 nm) and pentosidine-like (λexc335 nm; λem385 nm) AGE fluorescence were measured using a microplate spectrofluorometer Infinite M200 (Tecan, Lyon, France). To avoid quenching phenomena, the fluorescence resulting from the incubation in the same conditions of BSA (10 mg/mL) and the tested extract (1 µM to 3 mM) was subtracted from each measurement. The negative control, i.e., 100% inhibition of AGEs formation, consisted of wells with only BSA. A control, i.e., no inhibition of AGEs formation, consisted of wells with BSA (10 mg/mL) and D-ribose (0.5 M). The final volume assay was 100 µL. The percentage of AGE formation was calculated as follows for each extract concentration: AGEs (%) = (fluorescence intensity [sample]−fluorescence [blank of sample]/fluorescence intensity [control]−fluorescence [blank of control]) × 100.
Dose-effect curves were best fitted with a sigmoidal dose-response equation [four parameters logistic model: bottom and top plateaus, the EC50, and the slope factor (Hill’s slope)] using Sigma Plot 14.0 software, which enabled calculation of the IC50 values. The acceptance criteria were established by the correlation coefficient (r²) > 0.97. Results were compared with those of reference products, aminoguanidine and rutin.

HaCaT keratinocytes = experiment: Wound scratch assay; type: cell-based, human; details: 1 µM and 10 µM, after 24 h, p < 0.05 vs untreated control
Experimental: HaCaT keratinocytes were provided by Prof. Dr. Norbert E. Fusenig (DKFZ, Heidelberg, Germany) and cultivated in a DMEM medium, supplemented with FCS (10%), penicillin/streptomycin solution (1%), and non-essential amino acids (1%) (PAA, Pasching, Austria). HaCaT keratinocytes were cultivated at 37 °C, 5% CO2.
The evaluation of 4 different MAAs (compounds 1, 2, 4, and 8) on the migration of HaCaT cells was determined as described by Balekar et al.. HaCaT cells were plated into a 12-well plate at a concentration of 1 × 10^5 cells containing Dulbecco’s modified Eagle’s medium culture medium (DMEM) supplemented with 10% fetal calf serum (FCS) and incubated at 37 °C in a humidified 5% CO2 atmosphere until confluence has been reached. After attachment of the cells to the plate, medium was removed and the adherent cell layer was scratched with a sterile pipette tip. Cellular debris was removed by washing off with PBS (2 × 1 mL). Subsequently, the cells were treated with DMEM supplemented with 10% FCS containing the individual MAA test compounds at the concentrations of (10 µM to 1 µM). Control cells received only fresh DMEM +10% FCS, cells used as the positive control were treated with fresh DMEM + 20% FCS. Following, the cell cultures were incubated at […] in a humidified 5% CO2 atmosphere. Finally, the area of each scratch was determined by quantitative imaging at time 0 (just after scratching cell monolayers) and after 24 h treatment with the compounds (Leica DFC300, Wetzlar Germany; 40× magnification). The captured images were then analyzed using Image J software.
The migration rate can be expressed as the percentage of area reduction or wound closure:(2) Wound closure %=100 [Area (t0)−Area( t24)/Area (t0)]
Statistical analysis: The data were analyzed in three independent experiments and were expressed as mean ± SEM. One-way ANOVA, followed by an unpaired t-test to compare control group and treated group was performed. P-value of ≤ 0.05 was considered as statistically significant.

pentosidine-like AGEs [3] = details: cited from earlier work
[4] = tested on: hen egg white lysozyme (HEWL); details: read-out: Inhibition of glycation-dependent cross-linking of HEWL, IC50; literature finding, reference not given; cited from earlier work
collagenase type V [5] = molecular target: collagenase type V; set-up: method as in Hartmann et al. [18]; details: collagenase results previously published; 95% confidence interval in brackets; ref Hartmann et al. [18]; read-out: Collagenase Inhibition IC50 µM (CI 95 ±); cited from earlier work
[6] = tested on: UV-A induced MMPs such as MMP-1 and elastase; set-up: method as in Ryu et al. [20]; details: concentrations at 40 µM; ref Ryu et al. [20]; cited from earlier work
[7] = read-out: Collagenase inhibition IC50
[8] = concentration range 1 to 350 µM

Row | IC50 (pentosidine-like AGEs [2]) | IC50 (collagenase type V [1]) | Structure (SMILES) | further results
1 | 85 µM | – | C[C@@H]1O[C@@H](OC[C@H]2O[C@@H](Oc3c(-c4ccc(O)c(O)c4)oc4cc(O)cc(O)c4c3=O)[C@H](O)[C@@H](O)[C@@H]2O)[C@H](O)[C@H](O)[C@H]1O [Rutin, reference compound] | Collagenase inhibition (collagenase type V [1]; at 100 µM, 1% DMSO control group set to 100% enzyme activity): 100 µM -> 52% Inhibition *
2 | – | 104 µM | COC1=C(N[C@H](C(=O)O)[C@@H](C)O)C[C@](O)(CO)CC1=N[C@@H](CCC(N)=O)C(=O)O [Compound 8, bostrychine-B] | Migration / wound closure in scratch assay (words) (HaCaT keratinocytes): significant migration and narrowing of the scratch area; Migration / wound closure in scratch assay (words) (HaCaT keratinocytes; listed as bostrychine B): slightly higher wound closure ability
3 | 200 µM | 90 µM | COC1=C(NCCC(=O)O)C[C@@](O)(CO)CC1=N[C@H](C(=O)O)[C@@H](C)O [Compound 12, bostrychine-F] | –
4 | – | 1.9 µM | CC(C)C[C@H](NP(=O)(O)O[C@@H]1O[C@@H](C)[C@H](O)[C@@H](O)[C@H]1O)C(=O)N[C@@H](Cc1c[nH]c2ccccc12)C(=O)O [Phosphoramidon, phosphoramidon disodium salt, reference compound] | –
5 | 85 µM | 118 µM | COC1=C(N[C@H](C(=O)O)[C@@H](C)O)C[C@](O)(CO)CC1=N[C@@H](CCC(=O)O)C(=O)O [Compound 10, bostrychine-D] | –
6 | 150 µM | 163 µM | COC1=C(NC[C@@H](C)O)C[C@@](O)(CO)CC1=N[C@@H](CCC(=O)O)C(=O)O [Compound 11, bostrychine-E] | –

Continued, compound first:

Row | Structure (SMILES) | IC50 (pentosidine-like AGEs [2]) | IC50 (collagenase type V [1]) | further results
7 | O=C1c2c(O)cc(O)cc2O[C@H](c2ccc(O)c(OC3O[C@H](CO)[C@@H](O)[C@H](O)[C@H]3O)c2)[C@H]1O (stereo partly drawn) [taxifolin 3′-O-glucopyranoside] | – | – | IC50 (collagenase; [7]): 141 µM
8 | COC1=C(NCC(=O)O)C[C@@](O)(CO)CC1=O [mycosporine-glycine] | – | – | Collagenase inhibition (collagenase type V [1]; [8]): very pronounced inhibition
9 | COC1=C(NC[C@@H](C)O)C[C@](O)(CO)CC1=NCC(=O)O [Compound 5, aplysiapalythine A] | 400 µM | 80.7 µM | –
10 | OC[C@H]1O[C@@H](Oc2cc(O)cc(/C=C/c3ccc(O)cc3)c2)[C@H](O)[C@@H](O)[C@@H]1O [E-piceid] | – | – | IC50 (collagenase; [7]): 259 µM
11 | COC1=C(NCCO)C[C@](O)(CO)CC1=NCC(=O)O [Compound 6, asterina-330] | 125 µM | 70.9 µM | –
12 | COC1=C(NCC(=O)O)CC(O)(CO)CC1=NCCO (stereo not drawn) [asterina-330] | – | – | Collagenase inhibition (collagenase type V [1]; [8]): good inhibition
13 | COC1=C(N[C@@H](C)C(=O)O)C[C@](O)(CO)CC1=NCC(=O)O [Compound 4, mycosporine-alanine-glycine] | 75 µM | 158 µM | Migration / wound closure in scratch assay (words) (HaCaT keratinocytes): significant migration and narrowing of the scratch area
14 | O=c1c(O)c(-c2ccc(O)c(O)c2)oc2cc(O)cc(O)c12 [quercetin] | – | – | AGEs inhibition (pentosidine-like AGEs [3]): strong AGEs inhibitor
15 | O=C1c2c(O)cc(O)cc2OC(c2ccc(O)c(O)c2)C1O (stereo not drawn) [taxifolin] | – | – | IC50 (collagenase; [7]): 193 µM
16 | COC1=C(NCC(C)O)C[C@](O)(CO)CC1=NCC(=O)O (stereo partly drawn) [aplysiapalythine A] | – | – | Collagenase inhibition (collagenase type V [1]; [8]): good inhibition
17 | COC1=C(NCC(=O)O)CC(O)(CO)CC1=NCC(=O)O (stereo not drawn) [mycosporine-2-glycine] | – | – | IC50 [4]: 1610 µM
18 | OC[C@H]1O[C@@H](Oc2cc(O)cc(/C=C/c3ccc(O)c(O)c3)c2)[C@H](O)[C@@H](O)[C@@H]1O [E-astringin] | – | – | IC50 (collagenase; [7]): 125 µM
19 | CNC1=C(OC)C(=N[C@H](C(=O)O)[C@@H](C)O)C[C@](O)(CO)C1 [Compound 3, mycosporine-methylamine-threonine] | 150 µM | 250 µM | –
20 | N=C(N)NN [Aminoguanidine, reference compound] | 1400 µM | – | –
21 | O=C(O[C@@H]1Cc2c(O)cc(O)cc2O[C@@H]1c1cc(O)c(O)c(O)c1)c1cc(O)c(O)c(O)c1 [Epigallocatechingalleate, reference compound] | – | 46.6 µM | IC50 (collagenase; used as positive control in many publications, read-out: Collagenase inhibition IC50 (published values)): ~220 µM
22 | COC1=C(N[C@H](C(=O)O)[C@@H](C)O)C[C@](O)(CO)CC1=NCC(=O)O [Compound 2, porphyra-334] | 90 µM | – | Migration / wound closure in scratch assay (words) (HaCaT keratinocytes): significant migration and narrowing of the scratch area; IC50 (collagenase type V [5]): 106 µM; Inhibition of UV-A induced MMPs such as MMP-1 and elastase [6]: concentration-dependent inhibition; Procollagen production [6]: increase in procollagen production
23 | COC1=C(N[C@@H](CO)C(=O)O)C[C@](O)(CO)CC1=NCC(=O)O [Compound 1, Shinorine] | 103 µM | – | Migration / wound closure in scratch assay (words) (HaCaT keratinocytes): significant migration and narrowing of the scratch area; IC50 (collagenase type V [5]): 104 µM
24 | COC1=C(NCC(=O)O)CC(O)(CO)CC1=N (stereo not drawn) [palythine] | – | – | Anti-AGEs activity (pentosidine-like AGEs [2]; concentration range 1 µM to 3 mM): weakest effect
